Here are results for two compounds from patent US6649762B1, “Crystal modification C of 8-cyano-1-cyclopropyl-7-(1S,6S-2,8-diazabicyclo-[4.3.0]nonan-8-yl)-6-fluoro-1,4-dihyro-4-oxo-3-quinoline carboxylic” (Bayer Aktiengesellschaft, priority 1999, dated 2003).

Data set [1] in a line: storage stability of the crystal modification. Format: physicochemical. The note with it: prolonged storage.
In the next data set the test system is pathogenic bacteria. Description: activity against pathogenic bacteria. As to conditions: area of human or veterinary medicine.
The nature of data set [2]: hygroscopicity of the solid. As to conditions: powder obtained by the known preparation process. Format: physicochemical.

For `N#Cc1c(N2C[C@@H]3CCCN[C@@H]3C2)c(F)cc2c(=O)c(C(=O)O)cn(C3CC3)c12` [CCDC of the crystal modification C, 8-cyano-1-cyclopropyl-7-(1S,6S-2,8-diazabicyclo[4.3.0]nonan-8-yl)-6-fluoro-1,4-dihydro-4-oxo-3-quinolinecarboxylic acid], the “stability of the crystal modification (change into another crystal modification or the amorphous form)” value in data set [1] is on record as “does not change into another crystal modification or the amorphous form”. Besides, the “activity against pathogenic bacteria” value with pathogenic bacteria is given as “highly active”.
For `N#Cc1c(N2C[C@@H]3CCCN[C@@H]3C2)c(F)cc2c(=O)c(C(=O)O)cn(C3CC3)c12` [partially amorphous powder, 8-cyano-1-cyclopropyl-7-(1S,6S-2,8-diazabicyclo[4.3.0]nonan-8-yl)-6-fluoro-1,4-dihydro-4-oxo-3-quinolinecarboxylic acid], the hygroscopicity result in data set [2] is “hygroscopic”.
